Measurements from ChEMBL document CHEMBL1201862, “PubChem BioAssay data set” (2004).
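The compound was tested at five concentrations on cells cultured in 96-well plates, with a 48-hour exposure period. Abbreviation: GI50, concentration required for 50% inhibition of growth.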 The source made the active and inactive calls. Cut-off read from the data, not from the text of the source: active = GI50 up to about 1.1 µM and inactive = higher.

How the values were obtained:
Experiment in all cases: growth of human tumour cells (NCI), 48 h
MDA-MB-231 = test system: MDA-MB-231
MDA-MB-435 = test system: MDA-MB-435
NCI/ADR-RES = test system: NCI/ADR-RES
NCI-H460 = test system: NCI-H460
OVCAR-8 = test system: OVCAR-8
IGROV-1 = test system: IGROV-1
HCT-116 = test system: HCT-116
TK-10 = test system: TK-10
HT-29 = test system: HT-29
SK-MEL-2 = test system: SK-MEL-2
HL-60 = test system: HL-60
OVCAR-3 = test system: OVCAR-3
KM12 = test system: KM12
HOP-62 = test system: HOP-62
LOX IMVI = test system: LOX IMVI
CAKI-1 = test system: CAKI-1
SN12C = test system: SN12C
T47D = test system: T47D
HOP-92 = test system: HOP-92
HCC 2998 = test system: HCC 2998

Measured: GI50

COc1cc(NCC2COc3c(ccc(OC)c3OC)C2=O)c([N+](=O)[O-])cc1OC (stereo unspecified)
inactive: MDA-MB-231 79.1 µM | MDA-MB-435 > 100 µM | NCI/ADR-RES > 100 µM | NCI-H460 35.2 µM | OVCAR-8 > 100 µM | IGROV-1 > 100 µM | HCT-116 > 100 µM | TK-10 > 100 µM | HT-29 > 100 µM | SK-MEL-2 > 100 µM | HL-60 36.8 µM | OVCAR-3 > 100 µM | KM12 > 100 µM | HOP-62 > 100 µM | LOX IMVI > 100 µM | CAKI-1 > 100 µM | SN12C 70.1 µM | T47D 26.1 µM

NC1=C(N2CCCCC2)C(=O)NC2=N/C(=C\c3ccco3)C(=O)N21
inactive: MDA-MB-231 > 100 µM | MDA-MB-435 > 100 µM | NCI/ADR-RES > 100 µM | HOP-92 > 100 µM | OVCAR-8 > 100 µM | IGROV-1 > 100 µM | HCT-116 > 100 µM | TK-10 > 100 µM | HT-29 > 100 µM | HL-60 > 100 µM | KM12 > 100 µM | LOX IMVI > 100 µM | CAKI-1 > 100 µM | SN12C > 100 µM | T47D > 100 µM

C=C1CCC2[C@](C)(CCC[C@]2(C)C(=O)O)[C@@H]1CCc1ccoc1 (stereo partly specified)
inactive: MDA-MB-231 49.2 µM | MDA-MB-435 41.3 µM | NCI/ADR-RES 38.5 µM | NCI-H460 33.9 µM | IGROV-1 32.4 µM | HCT-116 33.7 µM | TK-10 24.2 µM | HCC 2998 43.8 µM | HT-29 24.2 µM | SK-MEL-2 29.4 µM | HL-60 45.8 µM | OVCAR-3 24 µM | KM12 18.7 µM | HOP-62 40.6 µM | LOX IMVI 16.9 µM | CAKI-1 32.8 µM | SN12C 33.5 µM | T47D 57.8 µM

COC(=O)C(C)(C)NC(=O)C(Cc1ccccc1)Nc1ncnc2c1ncn2-c1ccc(OC)cc1 (stereo unspecified)
inactive: MDA-MB-231 28.6 µM | MDA-MB-435 14.9 µM | NCI/ADR-RES 31.3 µM | NCI-H460 22.9 µM | HOP-92 22.8 µM | OVCAR-8 48.2 µM | IGROV-1 15 µM | HCT-116 28.2 µM | TK-10 > 100 µM | HCC 2998 50.7 µM | HT-29 19.9 µM | SK-MEL-2 37.5 µM | OVCAR-3 38.8 µM | KM12 25.6 µM | HOP-62 35.2 µM | LOX IMVI 34.2 µM | CAKI-1 32.7 µM | SN12C 85.1 µM | T47D 17.5 µM

Cc1cc(S(=O)(=O)[N-]C(=C(C#N)C#N)[n+]2ccc(N(C)C)cc2)c(SCC(=O)O)cc1Cl
inactive: MDA-MB-231 > 100 µM | MDA-MB-435 > 100 µM | NCI/ADR-RES > 100 µM | NCI-H460 > 100 µM | HOP-92 10 µM | OVCAR-8 > 100 µM | IGROV-1 > 100 µM | HCT-116 > 100 µM | TK-10 > 100 µM | HCC 2998 > 100 µM | HT-29 > 100 µM | SK-MEL-2 > 100 µM | HL-60 > 100 µM | OVCAR-3 > 100 µM | KM12 > 100 µM | HOP-62 > 100 µM | CAKI-1 > 100 µM | SN12C > 100 µM | T47D > 100 µM

Cc1ccc(S(=O)(=O)N2CCCSCCN(S(=O)(=O)c3ccc(C)cc3)CCCSCC2)cc1
inactive: MDA-MB-231 > 100 µM | MDA-MB-435 > 100 µM | NCI/ADR-RES > 100 µM | NCI-H460 > 100 µM | HOP-92 > 100 µM | OVCAR-8 > 100 µM | IGROV-1 > 100 µM | HCT-116 > 100 µM | TK-10 > 100 µM | HCC 2998 89.5 µM | HT-29 > 100 µM | SK-MEL-2 > 100 µM | HL-60 > 100 µM | OVCAR-3 > 100 µM | KM12 > 100 µM | HOP-62 > 100 µM | SN12C > 100 µM | T47D 17.5 µM

CC(C)(C)C1CCC(=O)/C(=C/CC2CC(=O)N(c3ccccc3)C(=O)C2)C1 (stereo unspecified)
inactive: MDA-MB-231 44 µM | MDA-MB-435 23.8 µM | NCI/ADR-RES 17.8 µM | NCI-H460 16.6 µM | OVCAR-8 19.8 µM | IGROV-1 19.7 µM | HCT-116 14.8 µM | TK-10 17.5 µM | HCC 2998 23.8 µM | HT-29 19.8 µM | SK-MEL-2 19.4 µM | HL-60 26.8 µM | OVCAR-3 23.1 µM | KM12 18.5 µM | HOP-62 30.2 µM | LOX IMVI 13.7 µM | CAKI-1 20.9 µM | SN12C 17.5 µM | T47D 21.8 µM

COc1ccc(N2C=Nn3c(nc4sc5c(c4c3=O)CCCC5)C2)cc1
inactive: MDA-MB-231 6.37 µM | MDA-MB-435 > 100 µM | NCI/ADR-RES > 100 µM | NCI-H460 86.9 µM | HOP-92 12.2 µM | OVCAR-8 51.4 µM | IGROV-1 > 100 µM | HCT-116 19.4 µM | TK-10 77.1 µM | HCC 2998 47.8 µM | HT-29 > 100 µM | SK-MEL-2 21.3 µM | OVCAR-3 > 100 µM | KM12 > 100 µM | HOP-62 3.09 µM | LOX IMVI 33.6 µM | CAKI-1 40.4 µM | SN12C > 100 µM | T47D > 100 µM

COCCN1C(=O)C2c3[nH]c4ccccc4c3C3CCC(C(C)(C)C)CC3C2C1=O (stereo unspecified)
inactive: MDA-MB-231 17.3 µM | MDA-MB-435 18.7 µM | NCI/ADR-RES 17.4 µM | NCI-H460 14.8 µM | OVCAR-8 20.7 µM | IGROV-1 23.2 µM | HCT-116 16.4 µM | TK-10 > 10 µM | HCC 2998 19.3 µM | HT-29 13.2 µM | HL-60 16 µM | OVCAR-3 17.5 µM | KM12 19.2 µM | HOP-62 18.6 µM | CAKI-1 23.1 µM | SN12C 17.1 µM | T47D 20 µM

CC(C)=C1C(=O)c2c(Cl)sc(Cl)c2C1=O
inactive: MDA-MB-231 27.6 µM | MDA-MB-435 18.6 µM | NCI/ADR-RES 24 µM | NCI-H460 > 100 µM | HOP-92 22.6 µM | OVCAR-8 19.7 µM | IGROV-1 21.9 µM | HCT-116 17.2 µM | TK-10 32.5 µM | HT-29 28.8 µM | SK-MEL-2 20 µM | HL-60 31.3 µM | OVCAR-3 29.3 µM | KM12 16.5 µM | HOP-62 42.4 µM | LOX IMVI 18.2 µM | CAKI-1 18.3 µM | SN12C 20.7 µM | T47D 31 µM

COC(=O)C1(Cc2ccccc2)Cc2cc3c(cc2C1=O)CCC3 (stereo unspecified)
inactive: MDA-MB-231 43.6 µM | MDA-MB-435 15.1 µM | NCI/ADR-RES 30.5 µM | NCI-H460 4.44 µM | HOP-92 11.6 µM | OVCAR-8 31.2 µM | IGROV-1 36 µM | HCT-116 23.8 µM | TK-10 64 µM | HCC 2998 2.81 µM | HT-29 12 µM | SK-MEL-2 18.3 µM | HL-60 14.6 µM | OVCAR-3 40 µM | KM12 19.8 µM | HOP-62 80.5 µM | LOX IMVI 27 µM | SN12C 37.3 µM | T47D 13.4 µM

CCCCCCCCCCCCOC1C(COCCN2CCCCC2)OC2OC(C)(C)OC21 (stereo unspecified)
inactive: MDA-MB-231 1.91 µM | MDA-MB-435 1.76 µM | NCI/ADR-RES 4.3 µM | NCI-H460 1.9 µM | OVCAR-8 1.8 µM | IGROV-1 1.83 µM | HCT-116 1.67 µM | TK-10 1.83 µM | HCC 2998 1.64 µM | HT-29 1.21 µM | SK-MEL-2 1.73 µM | HL-60 1.24 µM | OVCAR-3 2.5 µM | KM12 1.64 µM | HOP-62 1.84 µM | LOX IMVI 1.55 µM | CAKI-1 1.73 µM | SN12C 2.21 µM | T47D 1.94 µM

CC(=O)C(=NNc1ccc(-n2c(C)nc3ccccc3c2=O)cc1)C(C)=O
inactive: MDA-MB-231 > 100 µM | MDA-MB-435 > 100 µM | NCI/ADR-RES > 100 µM | NCI-H460 > 100 µM | HOP-92 > 100 µM | OVCAR-8 > 100 µM | IGROV-1 > 100 µM | HCT-116 > 100 µM | TK-10 > 100 µM | HT-29 > 100 µM | SK-MEL-2 > 100 µM | HL-60 > 100 µM | OVCAR-3 > 100 µM | KM12 55 µM | HOP-62 > 100 µM | LOX IMVI > 100 µM | CAKI-1 > 100 µM | SN12C > 100 µM | T47D > 100 µM

O=[N+]([O-])c1cccc(Cl)c1Oc1ccc(S(=O)(=O)N/C(=N\O)Nc2ccc(Cl)cc2)cc1
inactive: MDA-MB-231 17.7 µM | MDA-MB-435 14.3 µM | NCI/ADR-RES 20.3 µM | NCI-H460 12.8 µM | HOP-92 4.76 µM | OVCAR-8 16.3 µM | IGROV-1 15.1 µM | HCT-116 12.5 µM | TK-10 14.8 µM | HCC 2998 10.8 µM | HT-29 17.1 µM | SK-MEL-2 13 µM | OVCAR-3 10.3 µM | KM12 15.9 µM | HOP-62 20.2 µM | LOX IMVI 14.3 µM | CAKI-1 9.46 µM | SN12C 12.3 µM | T47D 5.97 µM

Nc1ncnc2c1ncn2[C@@H]1O[C@H](C(=O)O)[C@@H](O)[C@H]1O [5'-CARBOXY ADENOSINE]
inactive: MDA-MB-231 > 100 µM | MDA-MB-435 > 100 µM | NCI/ADR-RES > 100 µM | NCI-H460 > 100 µM | HOP-92 > 100 µM | OVCAR-8 > 100 µM | IGROV-1 > 100 µM | HCT-116 > 100 µM | TK-10 > 100 µM | HT-29 > 100 µM | SK-MEL-2 > 100 µM | HL-60 > 100 µM | OVCAR-3 > 100 µM | KM12 > 100 µM | HOP-62 > 100 µM | LOX IMVI > 100 µM | CAKI-1 > 100 µM | SN12C > 100 µM | T47D > 100 µM
